For one data set, the target named is T1, Axl (Homo sapiens, UniProt P30530).
T1 sequence (P30530 26-894): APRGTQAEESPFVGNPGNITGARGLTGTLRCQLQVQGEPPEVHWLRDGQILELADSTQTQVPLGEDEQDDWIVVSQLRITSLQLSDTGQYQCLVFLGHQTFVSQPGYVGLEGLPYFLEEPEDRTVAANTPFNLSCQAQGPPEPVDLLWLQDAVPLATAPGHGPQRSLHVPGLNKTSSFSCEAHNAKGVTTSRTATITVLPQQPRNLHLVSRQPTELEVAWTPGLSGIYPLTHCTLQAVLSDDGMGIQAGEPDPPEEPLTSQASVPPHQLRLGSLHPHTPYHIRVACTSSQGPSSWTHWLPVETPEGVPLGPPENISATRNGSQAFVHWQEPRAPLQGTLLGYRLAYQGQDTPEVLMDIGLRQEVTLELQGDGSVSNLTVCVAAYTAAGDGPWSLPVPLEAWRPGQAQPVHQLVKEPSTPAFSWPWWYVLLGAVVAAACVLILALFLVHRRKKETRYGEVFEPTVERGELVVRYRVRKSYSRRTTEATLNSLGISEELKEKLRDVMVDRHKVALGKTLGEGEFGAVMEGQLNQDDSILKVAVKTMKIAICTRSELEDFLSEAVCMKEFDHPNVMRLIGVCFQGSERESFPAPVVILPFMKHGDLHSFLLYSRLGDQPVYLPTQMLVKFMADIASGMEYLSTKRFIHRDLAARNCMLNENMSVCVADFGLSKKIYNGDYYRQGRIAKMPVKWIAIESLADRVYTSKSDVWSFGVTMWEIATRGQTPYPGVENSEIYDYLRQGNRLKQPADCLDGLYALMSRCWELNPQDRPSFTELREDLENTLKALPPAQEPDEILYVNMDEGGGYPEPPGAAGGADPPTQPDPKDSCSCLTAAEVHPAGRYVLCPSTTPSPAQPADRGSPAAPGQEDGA
As to the kind of experiment: Microfluidic capillary electrophoresis. Type of data set: biochemical.

For another data set, the target named is T2, Tyro3 (Homo sapiens, UniProt Q06418).
T2 sequence (Q06418 41-890): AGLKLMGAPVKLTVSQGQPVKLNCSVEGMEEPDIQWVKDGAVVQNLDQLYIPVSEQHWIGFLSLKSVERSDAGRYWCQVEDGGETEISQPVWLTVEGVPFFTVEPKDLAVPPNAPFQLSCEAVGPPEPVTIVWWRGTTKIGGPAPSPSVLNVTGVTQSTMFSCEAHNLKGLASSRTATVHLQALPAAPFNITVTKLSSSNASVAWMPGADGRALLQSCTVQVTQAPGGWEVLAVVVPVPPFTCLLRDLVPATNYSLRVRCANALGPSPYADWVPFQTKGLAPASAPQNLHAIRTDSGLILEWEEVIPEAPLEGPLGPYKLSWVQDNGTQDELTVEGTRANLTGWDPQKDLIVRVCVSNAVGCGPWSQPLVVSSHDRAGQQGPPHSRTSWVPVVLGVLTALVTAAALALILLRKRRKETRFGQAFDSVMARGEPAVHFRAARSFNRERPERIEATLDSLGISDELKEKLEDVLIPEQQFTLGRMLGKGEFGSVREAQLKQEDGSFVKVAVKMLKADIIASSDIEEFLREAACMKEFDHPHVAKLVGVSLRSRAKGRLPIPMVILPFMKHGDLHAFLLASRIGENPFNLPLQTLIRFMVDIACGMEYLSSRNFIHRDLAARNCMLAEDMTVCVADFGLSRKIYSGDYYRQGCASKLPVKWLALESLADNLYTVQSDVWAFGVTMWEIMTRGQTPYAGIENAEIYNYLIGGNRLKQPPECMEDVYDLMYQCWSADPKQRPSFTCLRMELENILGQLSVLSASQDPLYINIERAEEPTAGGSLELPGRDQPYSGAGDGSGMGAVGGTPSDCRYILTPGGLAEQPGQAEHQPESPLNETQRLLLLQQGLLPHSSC
Put plainly: Microfluidic capillary electrophoresis. Type of data set: biochemical.

The next data set concerns the target T3, Mer (Homo sapiens, UniProt Q12866).
T3 sequence (Q12866 21-999): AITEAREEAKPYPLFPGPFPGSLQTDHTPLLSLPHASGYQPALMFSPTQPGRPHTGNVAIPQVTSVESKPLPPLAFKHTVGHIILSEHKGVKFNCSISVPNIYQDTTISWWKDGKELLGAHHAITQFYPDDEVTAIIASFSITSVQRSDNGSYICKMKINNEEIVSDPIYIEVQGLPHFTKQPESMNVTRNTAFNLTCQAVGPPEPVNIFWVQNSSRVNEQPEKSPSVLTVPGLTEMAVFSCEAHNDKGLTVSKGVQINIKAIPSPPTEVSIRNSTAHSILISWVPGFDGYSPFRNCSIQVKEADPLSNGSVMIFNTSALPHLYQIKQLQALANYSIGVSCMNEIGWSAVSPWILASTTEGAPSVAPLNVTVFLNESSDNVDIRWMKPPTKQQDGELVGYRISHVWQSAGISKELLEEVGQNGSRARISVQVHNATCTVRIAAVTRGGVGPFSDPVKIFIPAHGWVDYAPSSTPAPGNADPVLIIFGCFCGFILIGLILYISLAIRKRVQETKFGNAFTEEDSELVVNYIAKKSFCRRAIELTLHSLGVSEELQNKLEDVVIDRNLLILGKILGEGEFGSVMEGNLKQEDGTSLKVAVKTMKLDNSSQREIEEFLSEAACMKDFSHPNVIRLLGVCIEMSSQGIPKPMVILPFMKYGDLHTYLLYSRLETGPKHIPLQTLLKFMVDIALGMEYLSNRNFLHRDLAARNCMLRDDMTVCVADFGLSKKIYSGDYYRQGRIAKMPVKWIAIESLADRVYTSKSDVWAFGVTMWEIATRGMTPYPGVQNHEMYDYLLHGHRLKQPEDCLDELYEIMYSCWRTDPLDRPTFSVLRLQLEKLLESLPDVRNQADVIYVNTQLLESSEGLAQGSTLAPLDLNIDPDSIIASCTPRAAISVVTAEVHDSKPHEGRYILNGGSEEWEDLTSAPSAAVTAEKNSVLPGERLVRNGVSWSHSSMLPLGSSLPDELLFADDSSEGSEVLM
Put plainly: Microfluidic capillary electrophoresis. The format is biochemical.

The subject of another data set is A549 cells. As to the kind of experiment: Soft agar colony formation assay, A549. The conditions noted are these: 2 weeks.
In the next data set the test system is Colo699 cells. As to the kind of experiment: Soft agar colony formation assay, Colo699. The conditions noted are these: 2 weeks.
The target in another data set is hERG channel (Homo sapiens, UniProt Q12809). Put plainly: hERG PatchXpress assay / hERG binding assay. Particulars: read-out: hERG EC50. A general note: The hERG channel carries a current that helps repolarise heart muscle cells.
Sequence of hERG channel (Q12809 whole entry): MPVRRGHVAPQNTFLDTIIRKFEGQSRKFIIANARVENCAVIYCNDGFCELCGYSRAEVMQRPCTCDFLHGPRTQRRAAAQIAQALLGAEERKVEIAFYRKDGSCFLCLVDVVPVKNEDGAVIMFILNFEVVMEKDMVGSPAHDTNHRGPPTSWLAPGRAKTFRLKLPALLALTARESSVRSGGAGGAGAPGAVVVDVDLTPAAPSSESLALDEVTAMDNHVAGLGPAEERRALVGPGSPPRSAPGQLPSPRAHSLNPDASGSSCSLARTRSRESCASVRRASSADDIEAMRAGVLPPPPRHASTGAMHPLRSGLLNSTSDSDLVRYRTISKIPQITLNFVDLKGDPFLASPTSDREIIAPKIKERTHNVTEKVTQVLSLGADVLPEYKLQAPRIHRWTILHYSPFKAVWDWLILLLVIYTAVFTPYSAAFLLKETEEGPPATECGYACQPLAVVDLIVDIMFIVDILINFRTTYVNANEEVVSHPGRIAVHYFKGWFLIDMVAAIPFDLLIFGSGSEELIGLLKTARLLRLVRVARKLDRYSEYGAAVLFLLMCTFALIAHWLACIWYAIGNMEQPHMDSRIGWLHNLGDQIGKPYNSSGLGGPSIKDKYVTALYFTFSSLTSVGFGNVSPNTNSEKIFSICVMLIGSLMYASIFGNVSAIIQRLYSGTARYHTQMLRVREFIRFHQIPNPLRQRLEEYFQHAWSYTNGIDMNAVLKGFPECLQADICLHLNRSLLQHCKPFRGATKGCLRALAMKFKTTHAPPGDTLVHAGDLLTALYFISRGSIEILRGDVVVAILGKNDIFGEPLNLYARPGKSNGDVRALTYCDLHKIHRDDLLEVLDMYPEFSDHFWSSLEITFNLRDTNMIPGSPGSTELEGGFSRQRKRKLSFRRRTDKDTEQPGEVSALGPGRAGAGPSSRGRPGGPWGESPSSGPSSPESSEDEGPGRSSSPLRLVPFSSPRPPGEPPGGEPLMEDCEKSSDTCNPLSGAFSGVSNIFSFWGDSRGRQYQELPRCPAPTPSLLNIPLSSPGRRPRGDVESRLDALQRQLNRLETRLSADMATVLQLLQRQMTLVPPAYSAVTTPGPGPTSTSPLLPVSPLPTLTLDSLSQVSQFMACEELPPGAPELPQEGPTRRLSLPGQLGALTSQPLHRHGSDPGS

The source of these data is article PMC3720808 (European journal of medicinal chemistry, 2013).

Structures are written as SMILES. Where two headings read alike, the source gives them in different places.

For `CCCCNc1ncc2c(-c3ccc(S(=O)(=O)NC)cc3)nn(C[C@H]3CC[C@H](N)CC3)c2n1` [Compound 2, 4-(1-((trans-4-Aminocyclohexyl)methyl)-6-(butylamino)-1H-pyrazolo[3,4-d]pyrimidin-3-yl)-N-methylbenzenesulfonamide], the figures for the IC50 against Axl and at Tyro3 were 0.059 µM and 0.027 µM, respectively.
`CCCCNc1ncc2c(-c3ccc(S(=O)(=O)NC)cc3)nn(C[C@H]3CC[C@H](O)CC3)c2n1` [Compound 7, 4-(1-((trans-4-Hydroxycyclohexyl)methyl)-6-(butylamino)-1H-pyrazolo[3,4-d]pyrimidin-3-yl)-N-methylbenzenesulfonamide]: the 50% inhibitory concentration (IC50) stood at 0.14 µM against Axl and 0.13 µM on Tyro3.
For `CCCCNc1ncc2c(-c3ccc(NS(C)(=O)=O)cc3)nn([C@H]3CC[C@H](O)CC3)c2n1` [Compound 18, trans-N-(4-(6-(Butylamino)-1-(4-hydroxycyclohexyl)-1H-pyrazolo[3,4-d]pyrimidin-3-yl)phenyl)methanesulfonamide], the IC50 on Axl was determined as 0.11 µM; at Tyro3, 0.035 µM.
As for `CCCCNc1ncc2c(-c3ccc(S(N)(=O)=O)cc3)nn([C@H]3CC[C@H](O)CC3)c2n1` [Compound 20, trans-4-(6-(Butylamino)-1-(4-hydroxycyclohexyl)-1H-pyrazolo[3,4-d]pyrimidin-3-yl)benzenesulfonamide], the IC50 against Axl came to 0.029 µM; against Mer it was 0.0014 µM; on Tyro3 it was 0.054 µM.
For `CCCCNc1ncc2c(-c3ccc(S(=O)(=O)NCCC)cc3)nn([C@H]3CC[C@H](O)CC3)c2n1` [Compound 21, trans-4-(6-(Butylamino)-1-(4-hydroxycyclohexyl)-1H-pyrazolo[3,4-d]pyrimidin-3-yl)-N-propylbenzenesulfonamide], the IC50 worked out at 0.062 µM at Axl and 0.035 µM on Tyro3.
The corresponding values for `CCCCNc1ncc2c(-c3ccc(S(=O)(=O)NC(C)C)cc3)nn([C@H]3CC[C@H](O)CC3)c2n1` [Compound 22, trans-4-(6-(Butylamino)-1-(4-hydroxycyclohexyl)-1H-pyrazolo[3,4-d]pyrimidin-3-yl)-N-isopropylbenzenesulfonamide] are 0.12 µM and 0.068 µM.
The matching figures for `CCCCNc1ncc2c(-c3ccc(S(=O)(=O)NC4CCCC4)cc3)nn([C@H]3CC[C@H](O)CC3)c2n1` [Compound 24, trans-4-(6-(Butylamino)-1-(4-hydroxycyclohexyl)-1H-pyrazolo[3,4-d]pyrimidin-3-yl)-N-cyclopentylbenzenesulfonamide]: 0.067 µM and 0.031 µM.
For the molecule `CCCCNc1ncc2c(-c3ccc(S(=O)(=O)NC4CCCCC4)cc3)nn([C@H]3CC[C@H](O)CC3)c2n1` [Compound 25, trans-4-(6-(Butylamino)-1-(4-hydroxycyclohexyl)-1H-pyrazolo[3,4-d]pyrimidin-3-yl)-N-cyclohexylbenzenesulfonamide], the IC50 amounted to 0.35 µM on Axl and 0.045 µM against Tyro3.
The corresponding values for `CCCCNc1ncc2c(-c3ccc(S(=O)(=O)NC4CCOCC4)cc3)nn([C@H]3CC[C@H](O)CC3)c2n1` [Compound 26, trans-4-(6-(Butylamino)-1-(4-hydroxycyclohexyl)-1H-pyrazolo[3,4-d]pyrimidin-3-yl)-N-(tetrahydro-2H-pyran-4-yl)benzenesulfonamide] are 0.069 µM and 0.028 µM.
The matching figures for `CCCCNc1ncc2c(-c3ccc(S(=O)(=O)Nc4ccc(F)cc4)cc3)nn([C@H]3CC[C@H](O)CC3)c2n1` [Compound 27, trans-4-(6-(Butylamino)-1-(4-hydroxycyclohexyl)-1H-pyrazolo[3,4-d]pyrimidin-3-yl)-N-(4-fluorophenyl)benzenesulfonamide]: 6.5 µM and 0.29 µM.
For `CCCCNc1ncc2c(-c3ccc(S(=O)(=O)N4CCCC4)cc3)nn([C@H]3CC[C@H](O)CC3)c2n1` [Compound 34, trans-4-(6-(Butylamino)-3-(4-(pyrrolidin-1-ylsulfonyl)phenyl)-1H-pyrazolo[3,4-d]pyrimidin-1-yl)cyclohexanol], the IC50 came out at 0.046 µM on Axl (read-out: IC50 Axl, ATP at Km, mean of two or more independent assays); 0.00065 µM at Mer (read-out: IC50 Mer, ATP at Km, mean of two or more independent assays); 0.022 µM at Tyro3 (read-out: IC50 Tyro3, ATP at Km, mean of two or more independent assays).
For `CCCCNc1ncc2c(-c3ccc(S(=O)(=O)N4CCOCC4)cc3)nn([C@H]3CC[C@H](O)CC3)c2n1` [Compound 35, trans-4-(6-(Butylamino)-3-(4-(morpholinosulfonyl)phenyl)-1H-pyrazolo[3,4-d]pyrimidin-1-yl)cyclohexanol], the “colony formation in soft agar” value in the data set with A549 cells and in the data set on Colo699 cells was “inhibited colony formation” each time.
As for `CCCCNc1ncc2c(-c3ccc(S(=O)(=O)N4CCC(C(=O)N5CCOCC5)CC4)cc3)nn([C@H]3CC[C@H](O)CC3)c2n1` [Compound 36, trans-(1-((4-(6-(Butylamino)-1-(4-hydroxycyclohexyl)-1H-pyrazolo[3,4-d]pyrimidin-3-yl)phenyl)sulfonyl)piperidin-4-yl)(morpholino)methanone], the IC50 at Axl was 0.023 µM; against Mer it was 0.0014 µM; on Tyro3, 0.076 µM.
As to `CCCCNc1ncc2c(-c3ccc(F)cc3)nn(CC3CCC(N)CC3)c2n1` (stereo not drawn) [UNC569], the EC50 on hERG channel was determined as 1.7 µM.

Broadly, the IC50 is the concentration that inhibits the measured activity by half. As a reminder, the EC50 is the concentration that produces a half-maximal response.
